One data set concerns the target wild type (WT) pfDHFR (Plasmodium falciparum, UniProt P13922, N108S/R59C). Kind of data set: Inhibition of wild type pfDHFR (Ki). It is filed as biochemical. The procedure: (§1) The synthesized 2,4-diamino-6-ethylpyrimdine derivatives as the hydrochloride salts were tested for the activities against Plasmodium falciparum (P. falciparum) according to the standard methods. These include the inhibition of dihydrofolate reductase (DHFR) enzymes of P. falciparum including, wild type (WT) and quadruple mutants (N51IC59RS108NI164L) (QM). The inhibition was expressed as inhibition constants (Ki) in nano molar (nM).

Data set [1] addresses quadruple mutant N51I + C59R + S108N + I164L (QM) pfDHFR (Plasmodium falciparum, UniProt P13922, I164L/N51I). In words: Inhibition of quadruple mutant pfDHFR (Ki). The format is biochemical. The procedure:
as §1

Another data set can be described thus: in vitro. The following applies: African green monkey. The source says: (§2) In Vitro Antimalarial Activites Against P. falciparum and Cytotoxicity Towards Mammalian Cells (Vero Cells)
For data set [2], the target named is T1, Human dihydrofolate reductase (hDHFR) (Homo sapiens, UniProt P00374).
T1 sequence (P00374 1-187): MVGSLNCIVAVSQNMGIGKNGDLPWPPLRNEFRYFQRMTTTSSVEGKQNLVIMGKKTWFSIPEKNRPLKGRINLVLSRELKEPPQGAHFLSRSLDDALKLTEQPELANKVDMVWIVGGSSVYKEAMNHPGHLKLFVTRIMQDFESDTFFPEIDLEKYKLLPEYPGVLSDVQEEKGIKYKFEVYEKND
In words: Inhibition of human dihydrofolate reductase (Ki). The format is biochemical. As to conditions: human DHFR; hydrochloride salts.

The subject of data set [3] is P. falciparum V1/S (N51I + C59R + S108 + I164L). Kind of data set: microbe, parasite or virus in culture. It is filed as cell-based, Plasmodium falciparum. As to conditions: Plasmodium falciparum, read-out: IC50 P. falciparum V1/S.
Description: as §2

The test system of data set [4] is P. falciparum TM4/8.2 (wild type). Kind of data set: microbe, parasite or virus in culture. The following applies: Plasmodium falciparum, read-out: IC50 P. falciparum TM4/8.2 (WT). It is filed as cell-based, Plasmodium falciparum.
Description: as §2

Where [5] appears, read: in vitro, quadruple mutant strain V1/S.
Setting [6] is: in vitro, wild-type strain TM4/8.2.

Like-named read-outs stand apart in the source and are kept apart here.

The term Ki denotes the equilibrium dissociation constant of an inhibitor or competing ligand from its target.

Sequence of wild type (WT) pfDHFR (P13922 whole entry R59C/N108S): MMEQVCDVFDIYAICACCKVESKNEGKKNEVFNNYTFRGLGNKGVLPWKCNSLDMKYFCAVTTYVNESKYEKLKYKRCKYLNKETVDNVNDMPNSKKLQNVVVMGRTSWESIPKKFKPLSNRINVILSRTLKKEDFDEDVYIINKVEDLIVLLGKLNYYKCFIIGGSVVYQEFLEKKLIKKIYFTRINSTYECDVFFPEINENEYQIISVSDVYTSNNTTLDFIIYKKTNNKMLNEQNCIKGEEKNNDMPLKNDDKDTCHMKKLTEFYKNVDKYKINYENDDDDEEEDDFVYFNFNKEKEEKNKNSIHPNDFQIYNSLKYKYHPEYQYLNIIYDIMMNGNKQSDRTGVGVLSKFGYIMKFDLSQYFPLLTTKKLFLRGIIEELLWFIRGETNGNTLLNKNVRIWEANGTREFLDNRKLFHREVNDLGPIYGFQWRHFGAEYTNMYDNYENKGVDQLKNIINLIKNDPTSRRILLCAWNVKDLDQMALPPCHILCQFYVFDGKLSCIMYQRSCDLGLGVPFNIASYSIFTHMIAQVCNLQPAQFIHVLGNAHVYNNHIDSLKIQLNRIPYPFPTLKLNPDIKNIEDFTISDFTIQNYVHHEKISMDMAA
Sequence of quadruple mutant N51I + C59R + S108N + I164L (QM) pfDHFR (P13922 whole entry N51I/I164L): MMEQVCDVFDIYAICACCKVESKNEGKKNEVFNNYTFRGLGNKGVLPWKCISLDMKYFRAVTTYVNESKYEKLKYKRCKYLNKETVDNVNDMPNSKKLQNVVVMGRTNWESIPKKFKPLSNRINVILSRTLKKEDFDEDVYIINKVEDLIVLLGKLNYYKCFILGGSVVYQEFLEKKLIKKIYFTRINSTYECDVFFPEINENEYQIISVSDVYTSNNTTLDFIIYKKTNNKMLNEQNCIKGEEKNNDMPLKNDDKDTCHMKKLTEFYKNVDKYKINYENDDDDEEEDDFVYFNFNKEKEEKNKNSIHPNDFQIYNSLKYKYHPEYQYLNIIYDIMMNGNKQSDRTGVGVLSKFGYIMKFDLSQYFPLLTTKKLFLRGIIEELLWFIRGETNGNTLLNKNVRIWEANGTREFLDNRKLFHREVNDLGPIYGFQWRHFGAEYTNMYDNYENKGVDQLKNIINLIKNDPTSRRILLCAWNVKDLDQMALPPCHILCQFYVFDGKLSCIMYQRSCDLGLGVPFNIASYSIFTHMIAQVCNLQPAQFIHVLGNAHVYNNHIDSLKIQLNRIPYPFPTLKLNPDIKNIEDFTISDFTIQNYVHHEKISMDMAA

In the case of `CCc1nc(N)nc(N)c1OCc1cc(-c2cccc([N+](=O)[O-])c2)no1` [Compound 39], the Ki at wild type (WT) pfDHFR is 1.33 ± 0.17 nM; in data set [1] it was 49 ± 6.73 nM; in data set [2] it was greater than 100000 nM. The IC50 in the data set “in vitro” is greater than 50000 nM; in data set [3] (setting [5]) it was 9080 ± 1050 nM; in data set [4] (setting [6]) it was 1160 ± 550 nM.

Consider `CCc1nc(N)nc(N)c1OCc1cc(-c2ccc(OC)cc2)no1` [Compound 42], for which the figures for the Ki (at wild type (WT) pfDHFR; in data set [1]; in data set [2]) were 1.15 ± 0.18 nM, 64.4 ± 7.59 nM and 1660 ± 76.7 nM, respectively. Further, the IC50 is greater than 25000 nM in the data set “in vitro”, greater than 25000 nM in data set [3] (setting [5]) and 1190 ± 360 nM in data set [4] (setting [6]).

With `CCc1nc(N)nc(N)c1OCc1cc(-c2cccc(OC)c2)no1` [Compound 38], the Ki stood at 0.55 ± 0.1 nM at wild type (WT) pfDHFR, 22.8 ± 3.09 nM in data set [1] and 1080 ± 31 nM in data set [2]. Moreover, the IC50 in the data set “in vitro” was greater than 25000 nM; in data set [3] (setting [5]), greater than 25000 nM; in data set [4] (setting [6]) it was 570 ± 190 nM.

In the case of `CCc1nc(N)nc(N)c1OCc1csc(-c2cccc([N+](=O)[O-])c2)n1` [Compound 62], the Ki at wild type (WT) pfDHFR turned out to be 0.74 ± 0.07 nM; in data set [1], 53.2 ± 8.93 nM; in data set [2], 134 ± 7.24 nM. The figures for the IC50 (in “in vitro”; in data set [3] (setting [5]); in data set [4] (setting [6])) were 17900 ± 6230 nM, 3980 ± 520 nM and 460 ± 70 nM, respectively.

Consider `CCc1nc(N)nc(N)c1-c1cn(CCCOc2ccc(Cl)cc2)nn1` [Compound 11], for which the Ki at wild type (WT) pfDHFR worked out at 1.12 ± 0.08 nM; in data set [1] it was 32.1 ± 8.31 nM; in data set [2], 1120 ± 91.4 nM. Moreover, the figures for the IC50 (in “in vitro”; in data set [3] (setting [5]); in data set [4] (setting [6])) were 48700 ± 13600 nM, greater than 50000 nM and 2420 ± 550 nM, respectively.

As to `CCc1nc(N)nc(N)c1OCc1cn(-c2ccccc2)nn1` [Compound 13], the Ki came to 3.27 ± 0.28 nM on wild type (WT) pfDHFR and 377 ± 20.5 nM in data set [1]. Moreover, the IC50 was greater than 25000 nM in “in vitro”, greater than 25000 nM in data set [3] (setting [5]) and 5730 ± 350 nM in data set [4] (setting [6]). Further, the “Ki hDHFR” value in data set [2] is on record as “High”.

For `CCc1nc(N)nc(N)c1OCc1cn(-c2cccc(C(=O)OC)c2)nn1` [Compound 15], the values for the Ki (on wild type (WT) pfDHFR; in data set [1]) were 1.85 ± 0.36 nM and 208 ± 16.6 nM, respectively. In addition, the IC50 is greater than 50000 nM in “in vitro”, 17600 ± 1500 nM in data set [3] (setting [5]) and 730 ± 230 nM in data set [4] (setting [6]). Further, in data set [2], the “Ki hDHFR” value is listed as “High”.

Turning to `CCc1nc(N)nc(N)c1OCc1coc(-c2cccc(OCC(=O)O)c2)n1` [Compound 54], the Ki on wild type (WT) pfDHFR is 1.19 ± 0.15 nM; in data set [1], 261 ± 19 nM; in data set [2], 540 ± 25.2 nM. Besides, the IC50 in “in vitro” was greater than 50000 nM; in data set [3] (setting [5]), greater than 50000 nM; in data set [4] (setting [6]), 3820 ± 210 nM.

Turning to `CCc1nc(N)nc(N)c1-c1cn(CCOc2ccc(Cl)cc2)nn1` [Compound 9], the Ki on wild type (WT) pfDHFR was determined as 1.14 ± 0.06 nM; in data set [1], 10.8 ± 1.02 nM; in data set [2], 1670 ± 59.5 nM. In addition, the IC50 amounted to 47400 ± 11600 nM in the data set “in vitro”, 15900 ± 5630 nM in data set [3] and 2240 ± 600 nM in data set [4].

Regarding `CCc1nc(N)nc(N)c1OCc1csc(-c2ccc(Br)cc2)n1` [Compound 71], the inhibitory constant (Ki) at wild type (WT) pfDHFR came out at 0.76 ± 0.15 nM; in data set [1], 24.3 ± 1.75 nM; in data set [2] it was 203 ± 27.2 nM. The IC50 in the data set “in vitro” is greater than 25000 nM; in data set [3] (setting [5]), 18700 ± 1900 nM; in data set [4] (setting [6]), 1090 ± 440 nM.

In the case of `CCc1nc(N)nc(N)c1OCc1csc(-c2cccc(C(=O)OC)c2)n1` [Compound 65], the values for the Ki (at wild type (WT) pfDHFR; in data set [1]; in data set [2]) were 0.51 ± 0.04 nM, 56.7 ± 5.79 nM and 195 ± 8.2 nM, respectively. Further, the IC50 is greater than 50000 nM in “in vitro”, greater than 50000 nM in data set [3] and 400 ± 80 nM in data set [4].

Take `CCc1nc(N)nc(N)c1-c1cn(Cc2ccccc2)nn1` [Compound 3]: the Ki turned out to be 11.3 ± 0.81 nM at wild type (WT) pfDHFR, 13.9 ± 1.98 nM in data set [1] and 3140 ± 242 nM in data set [2]. In addition, the IC50 in the data set “in vitro” was greater than 50000 nM; in data set [3], 19900 ± 7030 nM; in data set [4] it was 3570 ± 1250 nM.

As for `CCc1nc(N)nc(N)c1OCc1cc(-c2ccc(C(F)(F)F)cc2)no1` [Compound 41], the Ki is 4.29 ± 0.31 nM on wild type (WT) pfDHFR and greater than 100000 nM in data set [2]. Also, the figures for the IC50 (in the data set “in vitro”; in data set [3] (setting [5]); in data set [4] (setting [6])) were greater than 10000 nM, greater than 10000 nM and 6780 ± 2210 nM, respectively.

Values taken from patent US11028072B2, “2,4-diamino-6-ethylpyrimidine derivatives with antimalarial activities against Plasmodium falciparum” (National Science and Technology Development Agency, priority 2015, dated 2021).
